From patent publication US10413579B2, “Pharmaceutical composition for preventing or treating asthma comprising Pistacia weinmannifolia J. Poiss. ex Franch extract or fraction thereof” (Korea Research Institute of Bioscience and Biotechnology, priority 2013, dated 2019)

Columns and labels:
Format in all cases: in vivo, mouse
[1] = test system: interleukin-5; assay: Interleukin-5 in bronchoalveolar lavage fluid (ELISA); details: 30 mg/kg PO, mean±S.E.
Protocol: (§1) In the present experiment, 6-week-old Balb/c female mice having a body weight of about 20 g in average were used as experimental animals. After 1 week of acclimation, animals showing no abnormal findings on physical examination were used as subjects. 2 mg of aluminium hydroxide (A8222, Sigma, St. Louis, Mo.) and 20 μg of ovalbumin (A5503, Sigma, St. Louis, Mo.) were suspended in 200 μl of phosphate buffer (pH 7.4) and then injected into the peritoneal cavity of mouse for sensitization. On days 21 to 23 after the first intraperitoneal administration of ovalbumin, inhalation challenge was performed for 30 min with 1% ovalbumin using an ultrasonic atomizer. 24 hours after the last antigen administration, airway hyperresponsiveness was measured. 48 hours later, a lethal dose of pentobarbital (Entobal, Hanlim Pharmaceutical Co., Ltd.) was administered, body weight measurement and bronchotomy were performed, and bronchoalveolar lavage was performed with a total 1.2 mL of physiological saline, and then, samples were collected. […] Seven white mice were used for each group. […]
(§2) Briefly, 100 μl of bronchoalveolar lavage fluid was added to a well plate and allowed to react for 1 hour. […] Absorbance was measured at 450 nm.

[2] = test system: ovalbumin-sensitized asthma animal models; assay: Inflammatory cells in bronchoalveolar lavage fluid of ovalbumin-sensitized asthma mice; details: 30 mg/kg PO
Protocol: (§3) In the present experiment, 6-week-old Balb/c female mice having a body weight of about 20 g in average were used as experimental animals. After 1 week of acclimation, animals showing no abnormal findings on physical examination were used as subjects. 2 mg of aluminium hydroxide (A8222, Sigma, St. Louis, Mo.) and 20 μg of ovalbumin (A5503, Sigma, St. Louis, Mo.) were suspended in 200 μl of phosphate buffer (pH 7.4) and then injected into the peritoneal cavity of mouse for sensitization. On days 21 to 23 after the first intraperitoneal administration of ovalbumin, inhalation challenge was performed for 30 min with 1% ovalbumin using an ultrasonic atomizer. 24 hours after the last antigen administration, airway hyperresponsiveness was measured. 48 hours later, a lethal dose of pentobarbital (Entobal, Hanlim Pharmaceutical Co., Ltd.) was administered, body weight measurement and bronchotomy were performed, and bronchoalveolar lavage was performed with a total 1.2 mL of physiological saline, and then, samples were collected. […] Seven white mice were used for each group.

[3] = test system: interleukin-13; assay: Interleukin-13 in bronchoalveolar lavage fluid (ELISA); details: 30 mg/kg PO, mean±S.E.
Protocol: as §1, §2

[4] = test system: serum IgE; assay: Serum IgE in ovalbumin-sensitized asthma mice (immunoenzymatic assay); details: 30 mg/kg PO
Protocol: as §3
(§4) To measure serum IgE and ovalbumin-specific IgE, an immunoenzymatic assay was used. IgE level was measured using a commercially available kit (Biolegend Ins., California, USA). […] For color development, 3,3′,5,5′-tetramethylbezidine substrate was allowed to react, and the spectroscopic absorbance was measured at 450 nm.

[5] = test system: ovalbumin-specific IgE; assay: Ovalbumin-specific IgE in serum of ovalbumin-sensitized asthma mice (ELISA); details: 30 mg/kg PO, mean±S.E.
Protocol: as §3, §4

[6] = test system: interleukin-4; assay: Interleukin-4 in bronchoalveolar lavage fluid (ELISA); details: 30 mg/kg PO, mean±S.E.
Protocol: as §1, §2

SMILES: CC(C)(O)c1ccccc1CC[C@@H](SCC1(CC(=O)O)CC1)c1cccc(/C=C/c2ccc3ccc(Cl)cc3n2)c1 [Mon, montelukast]
- IL-5 [1]: 32.4 ± 4.46 pg/mL
- number of eosinophils in bronchoalveolar lavage fluid ([2]; OVA group (74±16.0)×10^5): 36±20.4 ×10^5
- number of total inflammatory cells in bronchoalveolar lavage fluid ([2]; OVA group (180±22.2)×10^5): 98±19.3 ×10^5
- IL-13 [3]: 65.7 ± 18.86 pg/mL
- serum IgE antibody level [4]: 1.8 ± 0.28 µg/mL
- IgE ([4]; mean±S.E., Table 1): 1.8 ± 0.28 ng/mL
- OVA-specific IgE [5]: 108 ± 83.0 ng/mL
- IL-4 [6]: 34.6 ± 6.52 pg/mL
